Measured values as given in ChEMBL document CHEMBL4304811, “Development of a Water-Soluble Indolylmaleimide Derivative IM-93 Showing Dual Inhibition of Ferroptosis and NETosis” (ACS Med Chem Lett, 2019).

Legend:
[1] = molecular target: Interleukin-1 receptor-associated kinase 4 (Homo sapiens) (UniProt Q9NWZ3); assay: Binding affinity to wild-type human partial length IRAK4 (M1 to S460 residues) expressed in mammalian expression system assessed as residual binding level at 10 uM by Kinomescan method relative to control
Chain of Interleukin-1 receptor-associated kinase 4 (Homo sapiens) (Q9NWZ3 whole entry, the tested form may be a part): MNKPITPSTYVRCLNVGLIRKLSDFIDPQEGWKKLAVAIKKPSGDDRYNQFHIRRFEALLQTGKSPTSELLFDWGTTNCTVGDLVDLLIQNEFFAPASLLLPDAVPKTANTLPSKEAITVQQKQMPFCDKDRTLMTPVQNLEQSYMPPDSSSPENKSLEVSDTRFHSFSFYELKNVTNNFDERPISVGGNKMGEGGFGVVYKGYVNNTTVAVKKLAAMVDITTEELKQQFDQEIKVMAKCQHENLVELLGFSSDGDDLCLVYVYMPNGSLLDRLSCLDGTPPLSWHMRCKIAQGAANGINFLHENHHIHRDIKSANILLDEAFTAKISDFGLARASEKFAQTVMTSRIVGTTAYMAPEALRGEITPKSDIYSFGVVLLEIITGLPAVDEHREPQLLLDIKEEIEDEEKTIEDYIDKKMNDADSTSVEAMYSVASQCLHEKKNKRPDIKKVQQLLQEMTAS

[2] = system: Epidermal growth factor receptor (Homo sapiens), P00533 [G719C]; assay: Binding affinity to human partial length EGFR G719C mutant (R669 to V1011 residues) expressed in bacterial expression system assessed as residual binding level at 10 uM by Kinomescan method relative to control
[3] = molecular target: Tyrosine-protein kinase ZAP-70 (Homo sapiens) (UniProt P43403); assay: Binding affinity to wild-type human partial length ZAP70 (D20 to G299 residues) expressed in mammalian expression system assessed as residual binding level at 10 uM by Kinomescan method relative to control
[4] = molecular target: Calcium/calmodulin-dependent protein kinase type 1D (Homo sapiens) (UniProt Q8IU85); assay: Binding affinity to wild-type human partial length CAMK1D (M1 to K299 residues) expressed in bacterial expression system assessed as residual binding level at 10 uM by Kinomescan method relative to control
Chain of Calcium/calmodulin-dependent protein kinase type 1D (Homo sapiens) (Q8IU85 whole entry, looked up, the tested form may be a part): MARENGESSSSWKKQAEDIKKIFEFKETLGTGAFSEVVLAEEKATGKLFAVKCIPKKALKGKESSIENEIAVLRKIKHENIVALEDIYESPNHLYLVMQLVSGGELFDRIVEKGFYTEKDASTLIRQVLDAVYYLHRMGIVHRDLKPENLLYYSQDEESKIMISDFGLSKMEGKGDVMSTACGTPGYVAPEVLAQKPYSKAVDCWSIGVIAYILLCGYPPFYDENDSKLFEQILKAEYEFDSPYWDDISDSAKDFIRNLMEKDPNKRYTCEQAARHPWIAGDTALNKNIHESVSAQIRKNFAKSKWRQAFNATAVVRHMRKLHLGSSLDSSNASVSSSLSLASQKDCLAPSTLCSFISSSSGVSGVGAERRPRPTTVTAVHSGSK

[5] = molecular target: Tyrosine-protein kinase ITK/TSK (Homo sapiens) (UniProt Q08881); assay: Binding affinity to wild-type human partial length ITK (R335 to L620 residues) expressed in bacterial expression system assessed as residual binding level at 10 uM by Kinomescan method relative to control
[6] = molecular target: Homeodomain-interacting protein kinase 3 (Homo sapiens) (UniProt Q9H422); assay: Binding affinity to wild-type human partial length HIPK3 (M153 to N562 residues) expressed in mammalian expression system assessed as residual binding level at 10 uM by Kinomescan method relative to control
[7] = molecular target: Protein kinase C iota type (Homo sapiens) (UniProt P41743); assay: Binding affinity to wild-type human partial length PRKCI (H215 to V587 residues) expressed in mammalian expression system assessed as residual binding level at 10 uM by Kinomescan method relative to control
[8] = molecular target: Activin receptor type-1B (Homo sapiens) (UniProt P36896); assay: Binding affinity to wild-type human ACVR1B (S187 to I505 residues) expressed in bacterial expression system assessed as residual binding level at 10 uM by Kinomescan method relative to control
Chain of Activin receptor type-1B (Homo sapiens) (P36896 whole entry, the tested form may be a part): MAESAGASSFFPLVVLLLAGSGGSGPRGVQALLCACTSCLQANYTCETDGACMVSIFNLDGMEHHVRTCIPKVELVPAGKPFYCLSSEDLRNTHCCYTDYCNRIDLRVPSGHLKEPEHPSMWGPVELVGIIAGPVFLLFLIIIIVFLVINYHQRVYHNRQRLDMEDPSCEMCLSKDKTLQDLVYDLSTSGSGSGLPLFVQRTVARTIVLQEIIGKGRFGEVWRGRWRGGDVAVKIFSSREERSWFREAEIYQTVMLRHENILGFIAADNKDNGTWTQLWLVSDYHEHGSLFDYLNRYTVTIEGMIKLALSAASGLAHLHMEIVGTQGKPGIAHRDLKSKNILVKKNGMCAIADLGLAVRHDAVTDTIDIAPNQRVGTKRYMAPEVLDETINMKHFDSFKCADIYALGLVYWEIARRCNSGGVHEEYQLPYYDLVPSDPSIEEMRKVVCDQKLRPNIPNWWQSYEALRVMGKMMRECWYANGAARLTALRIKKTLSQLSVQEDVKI

[9] = molecular target: Serine/threonine-protein kinase 17A (Homo sapiens) (UniProt Q9UEE5); assay: Binding affinity to wild-type human partial length DRAK1 (R32 to E363 residues) expressed in bacterial expression system assessed as residual binding level at 10 uM by Kinomescan method relative to control
[10] = molecular target: Muscle, skeletal receptor tyrosine-protein kinase (Homo sapiens) (UniProt O15146); assay: Binding affinity to wild-type human partial length MUSK (M553 to V869 residues) expressed in bacterial expression system assessed as residual binding level at 10 uM by Kinomescan method relative to control
Chain of Muscle, skeletal receptor tyrosine-protein kinase (Homo sapiens) (O15146 whole entry, the tested form may be a part): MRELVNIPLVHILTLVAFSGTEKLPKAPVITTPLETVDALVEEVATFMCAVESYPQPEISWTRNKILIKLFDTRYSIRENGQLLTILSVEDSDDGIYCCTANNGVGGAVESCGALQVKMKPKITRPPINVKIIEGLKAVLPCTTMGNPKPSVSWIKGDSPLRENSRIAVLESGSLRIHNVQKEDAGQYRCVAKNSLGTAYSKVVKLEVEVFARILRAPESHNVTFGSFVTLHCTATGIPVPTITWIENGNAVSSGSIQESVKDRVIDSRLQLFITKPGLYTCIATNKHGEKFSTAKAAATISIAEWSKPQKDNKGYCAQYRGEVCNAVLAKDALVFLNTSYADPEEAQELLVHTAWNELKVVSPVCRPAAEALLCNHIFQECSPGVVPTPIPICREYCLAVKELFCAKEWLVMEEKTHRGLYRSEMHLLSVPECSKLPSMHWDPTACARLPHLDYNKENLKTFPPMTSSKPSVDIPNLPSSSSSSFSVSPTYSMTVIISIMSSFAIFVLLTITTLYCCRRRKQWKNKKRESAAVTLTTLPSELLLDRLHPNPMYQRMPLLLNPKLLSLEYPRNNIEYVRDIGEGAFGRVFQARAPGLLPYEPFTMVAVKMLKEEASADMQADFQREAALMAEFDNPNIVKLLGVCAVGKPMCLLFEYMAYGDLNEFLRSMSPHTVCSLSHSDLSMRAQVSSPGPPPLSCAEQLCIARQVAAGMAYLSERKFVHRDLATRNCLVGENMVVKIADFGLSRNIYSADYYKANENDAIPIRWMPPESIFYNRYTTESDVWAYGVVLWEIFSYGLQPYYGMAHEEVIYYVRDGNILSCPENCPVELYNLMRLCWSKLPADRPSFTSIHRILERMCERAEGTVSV

[11] = molecular target: Tyrosine-protein kinase ABL1 (Homo sapiens) (UniProt P00519); assay: Binding affinity to wild-type human phosphorylated ABL1 (S229 to K512 residues) expressed in mammalian expression system assessed as residual binding level at 10 uM by Kinomescan method relative to control
Chain of Tyrosine-protein kinase ABL1 (Homo sapiens) (P00519 whole entry, the tested form may be a part): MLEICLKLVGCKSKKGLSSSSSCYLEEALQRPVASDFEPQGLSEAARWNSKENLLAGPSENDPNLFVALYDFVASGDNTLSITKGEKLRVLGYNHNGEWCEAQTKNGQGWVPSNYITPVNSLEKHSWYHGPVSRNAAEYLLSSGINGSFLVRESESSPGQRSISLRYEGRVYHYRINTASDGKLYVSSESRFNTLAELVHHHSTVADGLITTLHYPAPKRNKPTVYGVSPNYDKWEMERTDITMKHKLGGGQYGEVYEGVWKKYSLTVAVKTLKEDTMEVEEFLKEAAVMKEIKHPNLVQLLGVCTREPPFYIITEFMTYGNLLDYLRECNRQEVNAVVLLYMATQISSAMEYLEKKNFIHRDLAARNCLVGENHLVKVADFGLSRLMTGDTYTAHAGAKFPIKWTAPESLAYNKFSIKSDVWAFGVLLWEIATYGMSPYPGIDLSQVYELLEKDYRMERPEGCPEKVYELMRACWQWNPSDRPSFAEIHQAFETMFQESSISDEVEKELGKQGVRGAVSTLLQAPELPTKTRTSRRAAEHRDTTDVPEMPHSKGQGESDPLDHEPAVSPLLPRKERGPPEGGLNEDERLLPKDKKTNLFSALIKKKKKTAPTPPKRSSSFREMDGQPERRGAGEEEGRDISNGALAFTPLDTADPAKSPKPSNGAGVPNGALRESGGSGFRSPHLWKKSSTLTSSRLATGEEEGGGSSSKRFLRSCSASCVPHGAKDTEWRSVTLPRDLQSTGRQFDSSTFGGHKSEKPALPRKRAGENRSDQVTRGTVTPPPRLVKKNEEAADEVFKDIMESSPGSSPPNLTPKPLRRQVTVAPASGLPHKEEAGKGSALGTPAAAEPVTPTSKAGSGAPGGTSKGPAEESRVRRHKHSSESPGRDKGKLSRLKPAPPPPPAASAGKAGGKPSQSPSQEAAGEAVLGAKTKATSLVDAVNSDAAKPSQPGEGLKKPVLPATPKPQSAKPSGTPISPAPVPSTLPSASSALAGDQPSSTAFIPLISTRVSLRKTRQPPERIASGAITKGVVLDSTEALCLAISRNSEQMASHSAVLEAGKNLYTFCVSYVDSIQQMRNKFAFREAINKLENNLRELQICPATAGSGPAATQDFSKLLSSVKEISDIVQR

[12] = molecular target: Phosphatidylinositol 4-phosphate 5-kinase type-1 alpha (Homo sapiens) (UniProt Q99755); assay: Binding affinity to wild-type human full length PIP5K1A (M1 to H562 residues) expressed in bacterial expression system assessed as residual binding level at 10 uM by Kinomescan method relative to control
[13] = molecular target: Dual specificity tyrosine-phosphorylation-regulated kinase 1B (Homo sapiens) (UniProt Q9Y463); assay: Binding affinity to wild-type human full length DYRK1B (M1 to S629 residues) expressed in bacterial expression system assessed as residual binding level at 10 uM by Kinomescan method relative to control
[14] = molecular target: Calcium/calmodulin-dependent protein kinase type II subunit alpha (Homo sapiens) (UniProt Q9UQM7); assay: Binding affinity to wild-type human partial length CAMK2A (M1 to K328 residues) expressed in bacterial expression system assessed as residual binding level at 10 uM by Kinomescan method relative to control
[15] = molecular target: Tyrosine-protein kinase JAK2 (Homo sapiens) (UniProt O60674); assay: Binding affinity to wild-type human partial length JAK2 JH1 catalytic domain (A829 to G1132 residues) expressed in mammalian expression system assessed as residual binding level at 10 uM by Kinomescan method relative to control
[16] = molecular target: Inhibitor of nuclear factor kappa-B kinase subunit beta (Homo sapiens) (UniProt O14920); assay: Binding affinity to wild-type human full length IKK-beta (M1 to S756 residues) expressed in mammalian expression system assessed as residual binding level at 10 uM by Kinomescan method relative to control
[17] = molecular target: Serine/threonine-protein kinase pim-2 (Homo sapiens) (UniProt Q9P1W9); assay: Binding affinity to wild-type human partial length PIM2 (M1 to E291 residues) expressed in bacterial expression system assessed as residual binding level at 10 uM by Kinomescan method relative to control
[18] = molecular target: RAF proto-oncogene serine/threonine-protein kinase (Homo sapiens) (UniProt P04049); assay: Binding affinity to wild-type human partial length RAF1 (I330 to T640 residues) expressed in bacterial expression system assessed as residual binding level at 10 uM by Kinomescan method relative to control
[19] = molecular target: High affinity nerve growth factor receptor (Homo sapiens) (UniProt P04629); assay: Binding affinity to wild-type human partial length TRKA (G475 to G790 residues) expressed in mammalian expression system assessed as residual binding level at 10 uM by Kinomescan method relative to control
Chain of High affinity nerve growth factor receptor (Homo sapiens) (P04629 33-796 limits assumed): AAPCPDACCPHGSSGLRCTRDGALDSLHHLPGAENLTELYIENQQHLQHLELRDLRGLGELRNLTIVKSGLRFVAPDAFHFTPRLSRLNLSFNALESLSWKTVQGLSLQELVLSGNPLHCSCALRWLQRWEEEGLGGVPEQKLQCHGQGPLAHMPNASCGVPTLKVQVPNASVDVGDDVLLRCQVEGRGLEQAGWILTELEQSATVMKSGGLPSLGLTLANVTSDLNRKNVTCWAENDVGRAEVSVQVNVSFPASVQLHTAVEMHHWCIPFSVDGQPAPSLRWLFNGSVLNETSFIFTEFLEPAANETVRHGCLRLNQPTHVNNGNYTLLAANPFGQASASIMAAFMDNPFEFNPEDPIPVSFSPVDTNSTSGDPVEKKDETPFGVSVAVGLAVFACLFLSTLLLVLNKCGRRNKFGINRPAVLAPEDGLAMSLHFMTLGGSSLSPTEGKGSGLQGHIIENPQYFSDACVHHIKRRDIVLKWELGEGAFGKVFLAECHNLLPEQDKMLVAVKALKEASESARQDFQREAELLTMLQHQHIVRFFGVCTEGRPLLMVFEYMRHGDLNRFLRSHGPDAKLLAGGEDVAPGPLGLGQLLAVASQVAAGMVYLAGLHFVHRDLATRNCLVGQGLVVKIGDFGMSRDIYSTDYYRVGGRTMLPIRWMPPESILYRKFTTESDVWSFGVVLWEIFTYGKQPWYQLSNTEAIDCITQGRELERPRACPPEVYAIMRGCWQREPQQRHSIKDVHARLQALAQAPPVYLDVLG

[20] = molecular target: Mitogen-activated protein kinase kinase kinase 19 (Homo sapiens) (UniProt Q56UN5); assay: Binding affinity to wild-type human partial length YSK4 (T1019 to H1328 residues) expressed in mammalian expression system assessed as residual binding level at 10 uM by Kinomescan method relative to control
[21] = molecular target: Mitogen-activated protein kinase kinase kinase 14 (Homo sapiens) (UniProt Q99558); assay: Binding affinity to wild-type human partial length NIK (L318 to P947 residues) expressed in mammalian expression system assessed as residual binding level at 10 uM by Kinomescan method relative to control
[22] = molecular target: Serine/threonine-protein kinase RIO1 (Homo sapiens) (UniProt Q9BRS2); assay: Binding affinity to wild-type human full length RIOK1 (M1 to K568 residues) expressed in bacterial expression system assessed as residual binding level at 10 uM by Kinomescan method relative to control
[23] = molecular target: Microtubule-associated serine/threonine-protein kinase 1 (Homo sapiens) (UniProt Q9Y2H9); assay: Binding affinity to wild-type human partial length MAST1 (S346 to V730 residues) expressed in mammalian expression system assessed as residual binding level at 10 uM by Kinomescan method relative to control
[24] = molecular target: Mitogen-activated protein kinase kinase kinase kinase 2 (Homo sapiens) (UniProt Q12851); assay: Binding affinity to wild-type human partial length MAP4K2 (M1 to G318 residues) expressed in mammalian expression system assessed as residual binding level at 10 uM by Kinomescan method relative to control
Chain of Mitogen-activated protein kinase kinase kinase kinase 2 (Homo sapiens) (Q12851 whole entry, the tested form may be a part): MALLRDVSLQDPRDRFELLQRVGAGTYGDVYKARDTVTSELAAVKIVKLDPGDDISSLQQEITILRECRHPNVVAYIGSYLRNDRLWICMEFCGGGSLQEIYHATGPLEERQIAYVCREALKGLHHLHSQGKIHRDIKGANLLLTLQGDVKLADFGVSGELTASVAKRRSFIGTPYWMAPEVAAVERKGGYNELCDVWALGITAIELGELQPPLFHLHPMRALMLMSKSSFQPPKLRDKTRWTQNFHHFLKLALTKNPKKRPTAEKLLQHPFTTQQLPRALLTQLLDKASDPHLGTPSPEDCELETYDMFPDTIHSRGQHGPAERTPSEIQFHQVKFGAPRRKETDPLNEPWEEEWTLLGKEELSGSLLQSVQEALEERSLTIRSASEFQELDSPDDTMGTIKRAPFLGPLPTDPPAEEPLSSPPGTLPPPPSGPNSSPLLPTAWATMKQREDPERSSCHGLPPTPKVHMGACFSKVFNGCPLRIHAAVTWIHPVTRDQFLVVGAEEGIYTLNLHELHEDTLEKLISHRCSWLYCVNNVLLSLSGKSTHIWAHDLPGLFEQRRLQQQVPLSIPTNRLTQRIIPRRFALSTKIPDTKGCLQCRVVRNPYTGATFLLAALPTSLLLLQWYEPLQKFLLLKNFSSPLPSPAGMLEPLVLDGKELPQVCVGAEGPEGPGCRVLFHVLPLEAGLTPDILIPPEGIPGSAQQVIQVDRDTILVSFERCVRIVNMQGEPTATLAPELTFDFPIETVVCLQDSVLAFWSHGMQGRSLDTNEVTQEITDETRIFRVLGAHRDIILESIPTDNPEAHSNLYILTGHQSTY

SMILES: CC(C)N1C(=O)C(NCCCN(C)C)=C(c2cn(C)c3ccccc23)C1=O.Cl
- Activity [1]: 74%
- Activity [2]: 100%
- Activity [3]: 100%
- Activity [4]: 83%
- Activity [5]: 100%
- Activity [6]: 90%
- Activity [7]: 88%
- Activity [8]: 88%
- Activity [9]: 97%
- Activity [10]: 100%
- Activity [11]: 92%
- Activity [12]: 96%
- Activity [13]: 93%
- Activity [14]: 100%
- Activity [15]: 86%
- Activity [16]: 83%
- Activity [17]: 100%
- Activity [18]: 100%
- Activity [19]: 100%
- Activity [20]: 96%
- Activity [21]: 93%
- Activity [22]: 100%
- Activity [23]: 87%
- Activity [24]: 85%
